#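 Each compound was tested at five concentrations against cells in 96-well plates for 48 hours. At the GI50, growth is halved. TGI marks complete inhibition of growth.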
# Tests used:
# Experiment in all cases: NCI-60 cell line screen, 48 h
# [1] = tested on: CCRF-CEM leukemia
# [2] = tested on: RXF 393 renal
# [3] = tested on: SF-539 CNS
# [4] = tested on: K-562 leukemia
# [5] = tested on: SR leukemia
# [6] = tested on: SK-MEL-28 melanoma
# [7] = tested on: SN12C renal
# [8] = tested on: UO-31 renal
# [9] = tested on: TK-10 renal
# [10] = tested on: HCC-2998 colon
# [11] = tested on: PC-3 prostate
# [12] = tested on: MDA-MB-231 breast
# [13] = tested on: CAKI-1 renal
# [14] = tested on: IGROV1 ovarian
# [15] = tested on: MALME-3M melanoma
# [16] = tested on: OVCAR-3 ovarian
# [17] = tested on: SF-295 CNS
# [18] = tested on: DU-145 prostate
# [19] = tested on: MCF7 breast
# [20] = tested on: BT-549 breast
# [21] = tested on: NCI/ADR-RES ovarian
# [22] = tested on: NCI-H460 lung
# [23] = tested on: SK-OV-3 ovarian
# [24] = tested on: 786-0 renal
# [25] = tested on: EKVX NSCLC
# [26] = tested on: UACC-62 melanoma
# [27] = tested on: SNB-19 CNS
# [28] = tested on: OVCAR-4 ovarian
# [29] = tested on: MDA-MB-435
# [30] = tested on: MOLT-4 leukemia
# [31] = tested on: OVCAR-5 ovarian
# [32] = tested on: SNB-75 CNS
# [33] = tested on: HCT-15 colon
# [34] = tested on: HOP-92 NSCLC
# [35] = tested on: ACHN renal
# [36] = tested on: T-47D breast
# [37] = tested on: COLO 205 colon
# [38] = tested on: HOP-62 NSCLC
# [39] = tested on: M14 melanoma
# [40] = tested on: HS 578T breast
# [41] = tested on: SW-620 colon
# [42] = tested on: KM12 colon
# [43] = tested on: OVCAR-8 ovarian
# [44] = tested on: U251 CNS
# [45] = tested on: HL-60(TB) leukemia
# [46] = tested on: SK-MEL-5 melanoma
# [47] = tested on: HCT-116 colon
# [48] = tested on: SF-268 CNS
# [49] = tested on: NCI-H522 lung
# [50] = tested on: NCI-H226 lung
# [51] = tested on: NCI-H23 lung
# [52] = tested on: A498 renal
# [53] = tested on: LOX IMVI melanoma
# [54] = tested on: HT29 colon
# [55] = tested on: A549 NSCLC
# [56] = tested on: UACC-257 melanoma
# [57] = tested on: RPMI-8226 leukemia
# [58] = tested on: SK-MEL-2 melanoma
smiles,measurement,setting,value
C=C(C)[C@@H]1CC[C@]2(COP(=O)(OCC)OCC)CC[C@]3(C)[C@H](CC[C@@H]4[C@@]5(C)CCCNC(C)(C)[C@@H]5CC[C@]43C)[C@@H]12,GI50,[1],1710 nM
same,TGI,[1],3850 nM
same,GI50,[2],1550 nM
same,TGI,[2],2910 nM
same,GI50,[3],1730 nM
same,TGI,[3],3240 nM
same,GI50,[4],1660 nM
same,TGI,[4],7000 nM
same,GI50,[5],1410 nM
same,TGI,[5],4090 nM
same,GI50,[6],1750 nM
same,TGI,[6],3180 nM
same,GI50,[7],1570 nM
same,TGI,[7],3150 nM
same,GI50,[8],1440 nM
same,TGI,[8],2810 nM
same,GI50,[9],1860 nM
same,TGI,[9],3580 nM
same,GI50,[10],1720 nM
same,TGI,[10],3220 nM
same,GI50,[11],1590 nM
same,TGI,[11],2980 nM
same,GI50,[12],1750 nM
same,TGI,[12],3330 nM
same,GI50,[13],1500 nM
same,TGI,[13],2990 nM
same,GI50,[14],1610 nM
same,TGI,[14],3180 nM
same,GI50,[15],1680 nM
same,TGI,[15],3370 nM
same,GI50,[16],1670 nM
same,TGI,[16],3380 nM
same,GI50,[17],1680 nM
same,TGI,[17],3150 nM
same,GI50,[18],1790 nM
same,TGI,[18],3390 nM
same,GI50,[19],1330 nM
same,TGI,[19],2970 nM
same,GI50,[20],1680 nM
same,TGI,[20],3090 nM
same,GI50,[21],1660 nM
same,TGI,[21],3260 nM
same,GI50,[22],1790 nM
same,TGI,[22],4620 nM
same,GI50,[23],1690 nM
same,TGI,[23],3250 nM
same,GI50,[24],1710 nM
same,TGI,[24],3210 nM
same,GI50,[25],1460 nM
same,TGI,[25],2880 nM
same,GI50,[26],1700 nM
same,TGI,[26],3200 nM
same,GI50,[27],1710 nM
same,TGI,[27],3170 nM
same,GI50,[28],1540 nM
same,TGI,[28],3130 nM
same,GI50,[29],1730 nM
same,TGI,[29],3180 nM
same,GI50,[30],1850 nM
same,TGI,[30],4720 nM
same,GI50,[31],1720 nM
same,TGI,[31],3140 nM
same,GI50,[32],1220 nM
same,TGI,[32],2850 nM
same,GI50,[33],1560 nM
same,TGI,[33],3050 nM
same,GI50,[34],1230 nM
same,TGI,[34],2570 nM
same,GI50,[35],1730 nM
same,TGI,[35],3140 nM
COc1cccc2c1C=CC1(O2)Oc2cccc(OC)c2C=C1C (stereo unspecified),GI50,[1],356 nM
same,TGI,[1],3320 nM
same,GI50,[2],300 nM
same,TGI,[2],1630 nM
same,GI50,[3],363 nM
same,TGI,[3],1840 nM
same,GI50,[36],858 nM
same,TGI,[36],> 100000 nM
same,GI50,[4],347 nM
same,TGI,[4],> 100000 nM
same,GI50,[5],284 nM
same,TGI,[5],2060 nM
same,GI50,[6],2880 nM
same,TGI,[6],> 100000 nM
same,GI50,[7],683 nM
same,TGI,[7],> 100000 nM
same,GI50,[37],243 nM
same,TGI,[37],587 nM
same,GI50,[8],1270 nM
same,TGI,[8],> 100000 nM
same,GI50,[9],12200 nM
same,TGI,[9],> 100000 nM
same,GI50,[10],1430 nM
same,TGI,[10],9320 nM
same,GI50,[38],1490 nM
same,TGI,[38],> 100000 nM
same,GI50,[11],376 nM
same,TGI,[11],> 36400 nM
same,GI50,[39],345 nM
same,TGI,[39],4890 nM
same,GI50,[12],596 nM
same,TGI,[12],> 60200 nM
same,GI50,[13],461 nM
same,TGI,[13],> 100000 nM
same,GI50,[40],2100 nM
same,TGI,[40],> 100000 nM
same,GI50,[41],434 nM
same,TGI,[41],> 100000 nM
same,GI50,[14],794 nM
same,TGI,[14],> 100000 nM
same,GI50,[42],544 nM
same,TGI,[42],> 100000 nM
same,GI50,[43],1340 nM
same,TGI,[43],6820 nM
same,GI50,[15],899 nM
same,TGI,[15],48000 nM
same,GI50,[44],415 nM
same,TGI,[44],5520 nM
same,GI50,[45],364 nM
same,TGI,[45],> 100000 nM
same,GI50,[17],359 nM
same,TGI,[17],> 44200 nM
same,GI50,[18],727 nM
same,TGI,[18],> 100000 nM
same,GI50,[19],383 nM
same,TGI,[19],> 100000 nM
same,GI50,[46],521 nM
same,TGI,[46],11000 nM
same,GI50,[47],413 nM
same,TGI,[47],10500 nM
same,GI50,[48],1840 nM
same,TGI,[48],> 100000 nM
same,GI50,[20],656 nM
same,TGI,[20],6390 nM
same,GI50,[21],417 nM
same,TGI,[21],> 81700 nM
same,GI50,[49],290 nM
same,GI50,[50],1750 nM
same,TGI,[50],> 100000 nM
same,GI50,[51],1370 nM
same,TGI,[51],> 100000 nM
same,GI50,[52],486 nM
same,TGI,[52],5430 nM
same,GI50,[22],426 nM
same,TGI,[22],2490 nM
same,GI50,[23],700 nM
same,TGI,[23],> 100000 nM
same,GI50,[24],563 nM
same,GI50,[53],515 nM
same,TGI,[53],3950 nM
same,GI50,[25],2110 nM
same,TGI,[25],> 100000 nM
same,GI50,[27],649 nM
same,TGI,[27],> 100000 nM
same,GI50,[28],6390 nM
same,TGI,[28],> 100000 nM
same,GI50,[29],226 nM
same,TGI,[29],556 nM
same,GI50,[54],404 nM
same,GI50,[30],430 nM
same,GI50,[31],1300 nM
same,TGI,[31],> 100000 nM
same,GI50,[55],821 nM
same,TGI,[55],> 100000 nM
same,GI50,[56],1510 nM
same,TGI,[56],> 100000 nM
same,GI50,[32],218 nM
same,TGI,[32],1510 nM
same,GI50,[33],420 nM
same,TGI,[33],> 43600 nM
same,GI50,[34],316 nM
same,GI50,[57],352 nM
same,TGI,[57],2350 nM
same,GI50,[58],588 nM
same,GI50,[35],699 nM
same,TGI,[35],> 100000 nM
